Laboratory results published in publication PMC4682813, “The Aminosteroid Derivative RM-133 Shows In Vitro and In Vivo Antitumor Activity in Human Ovarian and Pancreatic Cancers” (PLoS ONE, 2015).
Where “and” joins values, the source holds several entries; their conditions need not be identical. Equal entries are not always repeated. Where two headings read alike, the source gives them in different places.

Legend:
[1] = RM-133 plasma and tumor concentration in nude mice after the xenograft experiment (second part), LC-MS/MS; assay type: in vivo, nu/nu nude mice; settings: for concentration at 12 h: 12 h after single s.c. 60 mg/kg (0.1 mL)
Experimental: At the end of the xenograft experiment, and in order to obtain preliminary pharmacological data, mice in treated groups were separated into 4 subgroups of 2–3 mice each, injected s.c. with RM-133 (60 mg/kg) and sacrificed after 3, 7, 12, or 24 h. In parallel, mice in the control group were also separated into 4 subgroups, treated with RM-133 (60 mg/kg) as for treated mice, and sacrificed at the same intervals. Blood was collected from mice by cardiac puncture, and the plasma concentration of RM-133 determined by liquid chromatography–tandem mass spectrometry (LC-MS/MS) as previously reported. Tumors of the mice in the treated group were collected at necropsy, pooled, homogenized according to a known procedure and the quantity of RM-133 was determined by LC-MS/MS.

[2] = test system: OVCAR-3 tumors xenografted in nu/nu nude mice; assay: OVCAR-3 xenografts using the two selected vehicles; assay type: in vivo
From the text: (§1) All in vivo experiments were approved by our Institutional Animal Care and Use Committee (Comités de protection des animaux de l’Université Laval) and carried out according to the guidelines of the Canadian Council on Animal Care. For xenografts, homozygous ♀ nu/nu nude mice (24–42 days old) were purchased from Charles River Inc. (Saint-Constant, QC, Canada) and housed (four to five) in vinyl micro-isolated ventilated cages, equipped with air lids, which were kept in laminar airflow hoods and maintained under pathogen-limiting conditions. During the acclimatization and study period, the animals were housed under a controlled environment at 22 ± 3°C, with 50 ± 20% relative humidity and light set at 12 h/day (light on at 07:15). Rodent food (Rodent diet #T.2018.15, Harlan Teklad, Madison, WI) and water were provided ad libitum. For nu/nu nude mice, food and water were sterilized prior to dispensing to the animals. Standard Balb/c mice were used for pharmacokinetic studies. Animals were anesthetized with isoflurane and killed by cervical dislocation.
Fourty ♀ nu/nu nude mice (22–24 g) were inoculated with 5×10^6 OVCAR-3 cells per flank, in 30% matrigel-containing culture medium (0.1 mL). After 23 days, tumor-bearing mice were randomized in 4 groups of 8 to 9 mice each. […] Two control mouse groups, each representing 12 tumors, received only the vehicles. As mentioned above, the tumor area was measured twice weekly and body weight monitored.

[3] = test system: OVCAR-3 tumors xenografted in nu/nu nude mice; assay: OVCAR-3 xenografts in nude mice, propylene glycol-based vehicle (first part); assay type: in vivo; settings: 60 mg/kg s.c. daily, propylene glycol:EtOH (92:8)
From the text: as §1
Twenty-two ♀ nu/nu nude mice (22–24 g) were inoculated s.c. with 5×10^6 OVCAR-3 cells (in 0.1 mL of growth medium containing 30% Matrigel (BD Biosciences, Bedford, MA)) into both flanks in each mouse via a 2.5-cm long 22-gauge needle. After 11 days, tumor-bearing mice were randomly assigned to two groups of 11 mice each according to tumor size, i.e. a control group (n = 12 tumors) and a treated group (n = 15 tumors). RM-133 was administered s.c. daily at 60 mg/kg in 0.1 mL of propylene glycol:EtOH (92:8). Animals in the control group received 0.1 mL of vehicle alone. Tumor size was measured twice weekly using a caliper. Two perpendicular diameters (L and W) were measured, and the tumor area (in mm^2) was calculated using the formula (L/2) x (W/2) x π. Animals were weighed at various intervals during the experiment.

[4] = Plasma concentration of RM-133 with different vehicles; assay type: in vivo, Balb/c mice; settings: female, Balb/c, mouse, sc, 120 mg/kg, single s.c. 120 mg/kg in 0.1 mL
[5] = mouse, in vivo
Experimental: Ten ♀ Balb/c mice weighing approximately 23 g were separated in 3 groups. […] Mice in groups 1 and 2 received a total of 8 injections over 4 days and were sacrificed on day 8. Mice behavior was monitored during the whole duration of the experiment, and macroscopic observation of organs was performed upon necropsy.

PANC-1 cells = assay: MTS cell proliferation (viability) assay, PANC-1; assay type: cell-based; settings: Homo sapiens, 72 h incubation
Experimental: Human ovarian (OVCAR-3) and pancreatic (PANC-1) cancer cells were purchased from the American Type Culture Collection (ATCC, Rockville, MD) and maintained in exponential growth in a 5% CO2 humidified atmosphere at 37°C. OVCAR-3 cells were routinely grown in RPMI-1640 medium (Sigma, St. Louis, MO) supplemented with 20% FBS, L-glutamine (2 mM), antibiotics (100 IU penicillin/mL and 100 μg streptomycin/mL), insulin (50 ng/mL), and estradiol (1 nM). For OVCAR-3 cell proliferation assays, the medium used was identical, except for the omission of estradiol. […]
The cell proliferation assay was performed with a colorimetric method using 3-(4,5-dimethylthiazol-2-yl)-5-(3-carboxymethoxyphenyl)2-(4-sulfophenyl)-2H-tetrazolium (MTS) (Cell Titer 96 Aqueous, Promega, Madison, WI). […] MTS is converted to water-soluble colored formazan by dehydrogenases present in metabolically active cells, and therefore, the MTS assay allows the immediate determination of absorbance of the soluble formazan directly in the cell medium and thus the measurement of viable cells. The A 490 of the medium was determined using a 96-well microplate reader INFINITE 200 PRO series (TECAN, Männedorf, Switzerland). The IC50 value of RM-133 was determined for each of the two cell lines using the GraphPad Prism 7 software (GraphPad Software, Inc., San Diego, CA).

[6] = sunflower oil:EtOH (92:8), 240 mg/kg s.c. every other day
[7] = vehicle #7 sesame oil (89.7%) EtOH (7.8%) benzyl benzoate (1%) benzyl alcohol (1%) Tween 80 (0.5%)
[8] = vehicle #8 soya oil (92%) EtOH (8%)

## C#C[C@]1(O)CC[C@H]2[C@@H]3CC[C@H]4C[C@H](O)[C@@H](N5CCN(C(=O)[C@@H]6CCCN6C(=O)c6ccc7ccccc7n6)CC5)C[C@]4(C)[C@H]3CC[C@@]21C [RM-133]
[1]; 21 days-xenograft experiment, 60 mg/kg daily s.c.
  accumulation in blood: does not accumulate in blood
[1]; OVCAR-3 tumors of treated mice collected at necropsy, pooled
  concentration inside the tumor: 1.2 μM and 773 ng/g
[1]; nu/nu nude, mouse, plasma, sc, 60 mg/kg, group A: previously treated daily for 21 days
  concentration at 12 h: 178 ng/mL
[1]; nu/nu nude, mouse, plasma, sc, 60 mg/kg, group B: not previously exposed to the drug
  concentration at 12 h: 91 ng/mL
[1]; nu/nu nude, mouse, plasma, sc, 60 mg/kg, single s.c. 60 mg/kg in 0.1 mL propylene glycol:EtOH (92:8), 24 h, nude mice
  concentration at 24 h: 81 ng/mL
[1]; single s.c. 60 mg/kg in 0.1 mL propylene glycol:EtOH (92:8), 3 h, nude mice
  maximum average plasma concentration: 460 ng/mL
[2]; aqueous 0.4% methylcellulose:EtOH (92:8), 240 mg/kg s.c. twice a day every other day
  day at which tumor growth became significantly different from control: 15 days
[2]; aqueous 0.4% methylcellulose:EtOH (92:8), 240 mg/kg s.c. twice a day every other day, end of treatment (35 days)
  tumor size relative to its initial value: 78%
[2]; aqueous 0.4% methylcellulose:EtOH (92:8), 240 mg/kg/0.2 mL s.c. twice a day every other day, after 28 days
  OVCAR-3 tumor growth inhibition: 100%
[2]; aqueous 0.4% methylcellulose:EtOH (92:8), 35-day treatment period
  abnormal behavior or death: neither abnormal behavior nor death
[2]; methylcellulose-based vehicle, s.c. (abstract)
  reduction of OVCAR-3 xenograft growth: 122%
[2]; [6]
  body weight, treated vs control: No significant difference
  day at which the effect on tumor growth became significant: 28 days
  toxicity symptoms during the study or at necropsy: no toxicity symptom
[2]; sunflower oil:EtOH (92:8), 240 mg/kg/0.2 mL s.c. once every other day, end of treatment (40 days)
  OVCAR-3 tumor growth inhibition: 100%
[2]; sunflower oil:EtOH (92:8), treatment stopped at day 40, no significant difference seven days after termination
  tumor growth after treatment was stopped: tumor growth resumed
[3]; 21-day treatment
  effect on body weight: no apparent effect on body weight
[3]
  day from which treated tumors were significantly smaller than control: 15 days
[3]; end of treatment (21 days)
  difference in tumor size between treated and control groups (tumor growth inhibition): 60%
[4]; [7]
  concentration at 3 h: 302 ± 7 ng/mL
  concentration at 12 h: 214 ± 8 ng/mL
[4]; [8]
  concentration at 3 h: 137 ± 2 ng/mL
  concentration at 12 h: 52 ± 1 ng/mL
[5]; female, Balb/c, 24 h
  mice with slightly enlarged kidneys at necropsy: 75%
[5]; 120 mg/kg
  adverse effect on mice: no adverse effect
[5]; 240 mg/kg
  adverse effect on mice: no adverse effect
[5]; sc
  macroscopic observation of organs at necropsy: organs did not show any detectable abnormality
PANC-1 cells
  IC50: 300 nM
